Measured values from PMC11802874, “The hypolipidemic effect of MI-883, the combined CAR agonist/ PXR antagonist, in diet-induced hypercholesterolemia model” (Nature Communications, 2025).
Values joined by “and” are separate entries in the source; they are usually repeats but may differ in a detail not shown here. Equal entries are not always repeated.

Legend:
[1] = test system: humanized PXR-CAR-CYP3A4/3A7 mice, ileum; experiment: RT-qPCR and Western blotting of ileum samples (HFD/HCD studies); assay type: in vivo, mouse; conditions: for Npc1l1 mRNA (RT-qPCR ileum): FigS14a
From the text: Specific TaqMan probes were used to analyze ileal samples, following the protocol described in Supplementary Table S3.
Western blotting experiments have been performed in BioRad instruments with BioRad precasted gels and reagents. Antibodies are listed in Supplementary Table S4. Densitometry has been done using ChemiDoc™ MP Imaging System and software (BioRad, Hercules, USA). Data are presented as relative protein expression to control samples. For protein expression quantification, areas in histograms have been calculated and related to a reference protein.

VD = VD (Homo sapiens, UniProt P11473); experiment: Luciferase reporter gene assay VD receptor, HepG2
From the text: The luciferase reporter gene assays for FXR, LXRα, LXRβ, THα, GRα, PPARα, PPARδ/β, PPARγ, AhR, VD, ERα, ERβ and mouse Car are described in our recent paper[19]
Gal4-LBD constructs of tested nuclear receptors have been used together with pGL4.31[luc2P/GAL4UAS/Hygro] luciferase reporter construct and pRL-TK Renilla expression vector (both from Promega, Hercules, USA) in HepG2 cells transfected with Lipofectamine 2000 or 3000 reagents. For GRα and FXR receptors, full-length expression vectors have been used with pGRE-luc or pFXRE-luc luciferase constructs. For the aryl hydrocarbon receptor (AhR), p1A1-luc construct was used with only pRL-TK vector for transfection normalization. A dual reporter assay (Promega, Hercules, USA) was used to analyze both firefly and Renilla luciferase activities.
Gal4-LBD constructs of tested nuclear receptors have been used together with pGL5-luc luciferase reporter construct and pRL-TK Renilla expression vector in HepG2 cells transfected with Lipofectamine 2000 or 3000 reagents. For GRα and FXR receptors, full-length expression vectors have been used with pGRE-luc or pFXRE-luc luciferase constructs. For the aryl hydrocarbon receptor (AhR), p1A1-luc construct was used with only pRL-TK vector for transfection normalization. […] Bars represent means±S.D. (n=3).

[2] = test system: humanized PXR-CAR-CYP3A4/3A7 mice, liver; experiment: Liver cholesterol, C4 and lathosterol analysis (HFD study); assay type: in vivo, mouse; parameters: liver total cholesterol (TotCh), individual animals / liver free cholesterol (Free CH), individual animals / liver cholesteryl esters (CE), individual animals / liver C4, individual animals / liver lathosterol, individual animals: unit not given here
Description: Cholesterol (Ch, total and free Ch), C4, and lathosterol determination were performed in liver tissue (25–80 mg fresh weight) using GC-MS according to Cohen et al.[67] (detailed protocol in Supplementary, Chapter 14). Internal standard (d7-cholesterol, Sigma Aldrich/Merck) was used. Solid phase extraction[68] and analysis were performed using LC-MS/MS as described previously. Protein quantification was done using DC Protein Assay (Bio-Rad) according to manufacturer instructions (micro assay format). All samples were analyzed for protein content in triplicates and analyzed.
Liver tissue (25-80 mg fresh weight) was diluted 10x with PBS (by weight), cut into small pieces using scissors, and treated with multiple (10-20) short pulses of ultrasound until a smooth homogenate was obtained. This 10% liver sonicate was used in subsequent analyses.
Lathosterol was measured using the same procedure as for free cholesterol with slight modifications: the volume of liver homogenate as well as the injection volume were increased (100 µL and 2 µL, respectively) while the amount of internal standard was reduced to approximately 100 ng. Also, the mixture was sonicated for 10 minutes after adding ethanol.
Liver sonicate (10%) was further diluted 30x (by weight) and 5 µL was analyzed using DC Protein Assay (Bio-Rad) according to manufacturer instructions (microassay format). Bovine serum albumin was used as standard. All samples were analyzed in triplicates.

[3] = test system: LS174T cells (endogenous PXR); experiment: CYP3A4 mRNA RT-qPCR in LS174T cells
From the text: LS174T human colon adenocarcinoma cells (RRID:CVCL_1384) were used in induction experiments with the subsequent CYP3A4 mRNA RT-qPCR analysis as they express functional endogenous PXR.

[4] = test system: humanized PXR-CAR-CYP3A4/3A7 mice, liver; experiment: Liver enzymatic TG measurement (HFD study); assay type: in vivo, mouse
Description: The liver tissue (10 mg) was homogenized using a pre-cooled steel bead in 225 μL of methanol in TissueLyser II (30 Hz, 2 × 30 s) (Qiagen, Hilden, Germany). This was followed by the addition of 750 μL of ice-cold methyl tert-butyl ether. Samples were vortexed and incubated for 1 h on a rotating wheel. Next, 188 μL of LC/MS-grade water was added and, after vortexing, the mixture underwent a short incubation and centrifugation (14,000 × g, 4 °C, 3 min). The upper organic phase containing lipids was collected and 300 μL was transferred to a vial containing 40 μL of 10% Triton X-100 in methanol, followed by evaporation on a heating block with shaking function (300 rpm, 45 °C). LC/MS-grade water (100 μL) was added to the evaporated sample and the tube was vortexed (1000 rpm, 35 °C). The samples were measured using a TG assay (Beckman Coulter, Brea, CA, USA) and a glycerol assay (Randox laboratories, Crumlin, UK) on an AU480 biochemistry analyzer (Beckman Coulter, Brea, CA, USA). The glycerol value was subtracted from the TG value. Livers from seven (n = 7) vehicle-treated controls and ten (n = 10) MI-883-treated animals were used.

[5] = FigS14b, ileum, individual animals, relative to vehicle
[6] = male mice, MI-883 5 mg/kg 3× per week p.o., unit not given, 5 mg/kg

Sequence of VD (P11473 127-423 limits assumed): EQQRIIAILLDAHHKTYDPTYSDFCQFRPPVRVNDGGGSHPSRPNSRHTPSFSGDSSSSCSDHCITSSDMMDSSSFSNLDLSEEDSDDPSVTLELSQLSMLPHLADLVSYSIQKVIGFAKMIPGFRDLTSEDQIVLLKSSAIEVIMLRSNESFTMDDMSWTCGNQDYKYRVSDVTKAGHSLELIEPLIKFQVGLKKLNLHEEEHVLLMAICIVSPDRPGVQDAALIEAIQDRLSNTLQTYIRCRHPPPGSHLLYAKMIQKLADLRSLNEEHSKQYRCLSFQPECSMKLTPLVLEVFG

For NC(=O)c1cc(Cn2cc(-c3c(-c4ccc(Cl)cc4)nc4cc(F)ccn34)nn2)ccc1Cl [MI-883, 2-chloro-5-((4-(2-(4-chlorophenyl)-7-fluoroimidazo[1,2-a]pyridin-3-yl)-1H-1,2,3-triazol-1-yl)methyl)benzamide], the “Npc1l1 mRNA (RT-qPCR ileum)” value ([1]; HCD, ileum, individual animals, relative to vehicle) was 0.6886 and 0.6208 and 0.503 and 1.313 and 0.759 and 0.8325, the “Npc1l1 mRNA (RT-qPCR ileum)” value ([1]; HFD, ileum, individual animals, relative to vehicle) was 1.357 and 1.364 and 0.9665 and 1.432 and the “Abcg5 mRNA (RT-qPCR ileum)” value [1, 5] was 1.01 and 0.5455 and 0.4999 and 1.367 and 0.6847 and 1.339. The “Abcg8 mRNA (RT-qPCR ileum)” value [1, 5] was 0.9573 and 0.7781 and 0.4243 and 1.303 and 0.6152 and 1.193, the “Fgf15 mRNA (RT-qPCR ileum)” value ([1]; FigS14c, HCD, ileum, individual animals, relative to vehicle) was 0.6669 and 0.9092 and 0.1811 and 0.1054 and 2.113 and 1.33 and the “Fgf15 mRNA (RT-qPCR ileum)” value ([1]; FigS14c, HFD, ileum, individual animals, relative to vehicle) was 0.03638 and 0.6965 and 4.34 and 0.01802. For the same compound, the “Shp mRNA (RT-qPCR ileum)” value ([1]; FigS14c, ileum, individual animals, relative to vehicle) was 1.017 and 0.2256 and 0.2775 and 0.6923 and 3.416 and 0.8457, the “Asbt protein in the mouse ileum” value ([1]; HFD study) was “significantly decreased” and the “ileum Cyp2b6 i, individual animals” value ([1]; HFD study, relative to control) was 4.346 and 14.7968 and 1.588 and 2.908 and 3.922 and 0.8524. For the same compound, the “ileum Mrp4 i, individual animals” value ([1]; HFD study, relative to control) was 0.275 and 0.7792 and 1.874 and 1.502 and 1.969 and 1.209, the “ileum Slc10a2 i, individual animals” value ([1]; HFD study, relative to control) was 0.08727 and 0.1129 and 0.7704 and 0.8835 and 0.4948 and the “ileum Slc51a i, individual animals” value ([1]; HFD study, relative to control) was 0.2127 and 0.5386 and 0.8471 and 0.8796 and 0.7946 and 0.7965. The “ileum Slc51b i, individual animals” value ([1]; HFD study, relative to control) was 0.7174 and 1.595 and 0.9945 and 0.7427 and 0.4728 and 0.5989, the “ileal Npc1l1 and Abcg5/8” value ([1]; Supplementary Fig. 14) was “did not observe any regulation” and the “ileal Shp and Fgf15 mRNA levels” value ([1]; Supplementary Fig. 14) was “not affected”. The “NRs assays: VDR (relative to ctrl, replicates)” value (VD) was 0.7 and 0.81 and 0.9, the “free cholesterol in the liver (per liver protein or LW)” value [2] was “significantly decreased” and the “liver C4 and C4/total cholesterol” value [2] was “did not increase”. For the same compound, the “liver lathosterol, total cholesterol, cholesteryl esters (CE)” value [2] was “did not show significant changes”, the “liver C4, individual animals” value [2, 6] was 742.5 and 1060.6 and 588.1 and 517.8 and 1677.1 and 810.7 and 1283.7 and 1057.8 and 1099.9 and the “liver cholesteryl esters (CE), individual animals” value [2, 6] was 23 and 16.4 and 24.1 and 22.4 and 62.3 and 32.9 and 18.7 and 38.2 and 47.6. The “liver free cholesterol (Free CH), individual animals” value [2, 6] was 40.3 and 36.2 and 35.7 and 37.4 and 37.7 and 32.3 and 38.3 and 39.6 and 40.5, the “liver lathosterol, individual animals” value [2, 6] was 1.57 and 2.018 and 2.101 and 1.895 and 2.439 and the “liver total cholesterol (TotCh), individual animals” value [2, 6] was 63.3 and 52.6 and 59.8 and 100 and 65.2 and 57 and 77.8 and 88.1. The “RT-qPCR in LS174T (Fig 1 l, CYP3A4 mRNA), replicates” value (shortened to “RT-qPCR in LS174T”) ([3]; Rif 1μM + MI-883 1μM) was 2.91 and 2.35 and 2.61, the “RT-qPCR in LS174T” value ([3]; Rif 1μM + test compound 10μM) was 0.86 and 1.1 and 0.8 and the “RT-qPCR in LS174T” value ([3]; Rif 10μM + MI-883 1μM) was 10.4 and 6.9 and 8.3. The “RT-qPCR in LS174T” value ([3]; Rif 10μM + MI-883 10μM) was 3.35 and 2.8 and 2.2, the “RT-qPCR in LS174T” value ([3]; SR12813 1μM + MI-883 1μM) was 0.55 and 0.68 and 0.64 and the “RT-qPCR in LS174T” value ([3]; SR12813 1μM + test compound 10μM) was 0.77 and 0.59 and 0.57. For the same compound, the “RT-qPCR in LS174T” value ([3]; single agent 1μM, ctrl = 1) was 0.45 and 0.96 and 0.51, the “RT-qPCR in LS174T” value ([3]; single agent 10μM) was 0.59 and 0.57 and 0.55 and the “TG accumulation in male livers, enzymatic assay” value [4] was “no significant impact”.
